# From patent publication US10428024B2, “Piperidinyl derivatives” (MERCK PATENT GMBH, priority 2016, dated 2019)
# Molecular target: PDHK2 (Homo sapiens (Human), UniProt Q15119)
# Assay: Biochemical activity testing of PDHK2: PDC inactivation assay
# Settings: human rec PDHK2, 5 μM ATP, read-out: IC50 PDHK2 (enzyme assay)
# From the text: Biochemical Activity Testing of PDHK2: PDC Inactivation Assay
# The biochemical activity assay for PDHK2 is based on the inactivation of PDC through phosphorylation by PDHK2. The assay is run in two steps: the enzymatic PDHK2 reaction in which isolated PDC is phosphorylated by PDHK2 with ATP as co-substrate and the PDC activity assay in which pyruvate and NAD are converted to acetyl-CoA and NADH. The PDC activity correlates to the increase in NADH and thereby is detectable directly via the increasing fluorescence signal (Exc 340 nm, Em 450 nm). Inhibition of PDHK2 results in a lower phosphorylation status and thereby a less decrease in activity of PDC and a stronger increase in NADH fluorescence signal.
# The PDC inactivation assay is performed in Greiner 384-well microtiter plates and is used for high throughput screen. 4 μl of PDHK2 (human, rec, Carna Bioscience, 10 ng/μl-137 nM final concentration) and PDC (isolated from porcine heart, Sigma-Aldrich, 20 mU/ml final concentration) are incubated in the absence or presence of the test compound (10 dilution concentrations) for 30 min at room temperature in kinase buffer (15 mM potassium phosphate buffer, pH 7.0, 60 mM KCl, 1.5 mM DTT, 2.5 mM MgCl2, 0.0125% (w/v) BSA, 0.125% Pluronic F-68). The kinase reaction is started by the addition of 4 μl ATP substrate solution (fc 5 μM in kinase buffer). After 30 min incubation at 37° C. 40 μl of PDC reaction solution (100 mM Tris/HCl, pH 7.8, 0.5 mM EDTA, 1 mM MgCl2, 50 mM NaF, 0.25 mM Coenzyme A, 5 mM pyruvate, 1 mM NAD, 5 mM DTT, 1 mM thiamine pyrophosphate) is added. The first fluorescence measurement is performed on a Perkin Elmer Envision (Exc 340 nm, Em 450 nm). The reaction is incubated for 45 min at room temperature. Afterwards a second fluorescence measurement is performed and the PDC activity is calculated by the difference between both measurements. As full value for the PDHK2 assay the inhibitor-free PDHK2 reaction is used. The pharmacological zero value used is DCA (Sigma-Aldrich) in a final concentration of 3 mM. The inhibitory values (IC50) were determined using either the program Symyx Assay Explorer® or Condosseo® from GeneData.
row,Compound,IC50
1,"CN(C(=O)C1CCN(C(=O)[C@@](C)(O)C(F)(F)F)CC1)c1ccc(C#N)cc1 [Compound A4, 1-((R)-3,3,3-Trifluoro-2-hydroxy-2-methyl-propionyl)-piperidine-4-carboxylic acid (4-cyano-phenyl)-methyl-amide]",1.5 µM
2,"Cc1ccc(N(C)C(=O)C2CCN(C(=O)[C@@](C)(O)C(F)(F)F)CC2C)cc1 (stereo partly drawn) [Compound A6, N,3-Dimethyl-N-(4-methylphenyl)-1-[(2R)-3,3,3-trifluoro-2-hydroxy-2-methylpropanoyl]piperidine-4-carboxamide]",0.24 µM
3,"Cc1ccc(N(C)C(=O)[C@@H]2CCN(C(=O)[C@@](C)(O)C(F)(F)F)C[C@@H]2C)cc1 [Compound A8, (3R,4R)—N,3-Dimethyl-N-(4-methylphenyl)-1-[(2R)-3,3,3-trifluoro-2-hydroxy-2-methylpropanoyl]piperidine-4-carboxamide]",5.1 µM
4,"C[C@H]1CN(C(=O)[C@@](C)(O)C(F)(F)F)CC[C@H]1C(=O)N(C)c1ccc(Cl)cc1 [Compound A11, (3R,4R)—N-(4-chlorophenyl)-N,3-dimethyl-1-[(2R)-3,3,3-trifluoro-2-hydroxy-2-methylpropanoyl]piperidine-4-carboxamide]",3.8 µM
5,"Cc1ccc(N(C)C(=O)[C@@H]2CCN(C(=O)[C@@](C)(O)C(F)(F)F)C[C@@H]2C)c(F)c1 [Compound A14, (3R,4R)—N-(2-fluoro-4-methylphenyl)-N,3-dimethyl-1-[(2R)-3,3,3-trifluoro-2-hydroxy-2-methylpropanoyl]piperidine-4-carboxamide]",0.77 µM
6,"CC1CN(C(=O)[C@@](C)(O)C(F)(F)F)CCC1C(=O)N(C)c1ccc(C(F)(F)F)cc1Cl (stereo partly drawn) [Compound A15, N-[2-chloro-4-(trifluoromethyl)phenyl]-N,3-dimethyl-1-[(2R)-3,3,3-trifluoro-2-hydroxy-2-methylpropanoyl]piperidine-4-carboxamide]",1.7 µM
7,"C[C@H]1CN(C(=O)[C@@](C)(O)C(F)(F)F)CC[C@H]1N(C)C(=O)c1ccc(Cl)cc1 [Compound A22, 4-Chloro-N-methyl-N-[(3S,4R)-3-methyl-1-[(2R)-3,3,3-trifluoro-2-hydroxy-2-methylpropanoyl]piperidin-4-yl]benzamide]",5.9 µM
8,"Cc1ccc(C(=O)N(C)[C@@H]2CCN(C(=O)[C@@](C)(O)C(F)(F)F)C[C@@H]2C)cc1 [Compound A25, N,4-Dimethyl-N-[(3S,4R)-3-methyl-1-[(2R)-3,3,3-trifluoro-2-hydroxy-2-methylpropanoyl]piperidin-4-yl]benzamide]",2.7 µM
9,"C[C@H]1CN(C(=O)[C@@](C)(O)C(F)(F)F)CC[C@H]1N(C)C(=O)c1ccc(F)cc1 [Compound A30, 4-Fluoro-N-methyl-N-[(3S,4R)-3-methyl-1-[(2R)-3,3,3-trifluoro-2-hydroxy-2-methylpropanoyl]piperidin-4-yl]benzamide]",7.9 µM
10,"C[C@H]1CN(C(=O)[C@@](C)(O)C(F)(F)F)CC[C@H]1N(C)C(=O)c1ccccc1 [Compound A33, N-Methyl-N-[(3S,4R)-3-methyl-1-[(2R)-3,3,3-trifluoro-2-hydroxy-2-methylpropanoyl]piperidin-4-yl]benzamide]",3.4 µM
11,"COc1ccc(C(=O)N(C)[C@@H]2CCN(C(=O)[C@@](C)(O)C(F)(F)F)C[C@@H]2C)cc1 [Compound A36, 4-Methoxy-N-methyl-N-[(3S,4R)-3-methyl-1-[(2R)-3,3,3-trifluoro-2-hydroxy-2-methylpropanoyl]piperidin-4-yl]benzamide]",1.3 µM
12,"C[C@H]1CN(C(=O)[C@@](C)(O)C(F)(F)F)CC[C@H]1N(C)C(=O)c1ccc(F)cc1F [Compound A39, 2,4-Difluoro-N-methyl-N-[(3S,4R)-3-methyl-1-[(2R)-3,3,3-trifluoro-2-hydroxy-2-methylpropanoyl]piperidin-4-yl]benzamide]",4.9 µM
13,"C[C@H]1CN(C(=O)[C@@](C)(O)C(F)(F)F)CC[C@H]1N(C)C(=O)c1ncc(F)cc1F [Compound A42, 3,5-Difluoro-N-methyl-N-[(3S,4R)-3-methyl-1-[(2R)-3,3,3-trifluoro-2-hydroxy-2-methylpropanoyl]piperidin-4-yl]pyridine-2-carboxamide]",2.4 µM
14,"C[C@H]1CN(C(=O)[C@@](C)(O)C(F)(F)F)CC[C@H]1N(C)C(=O)c1ccc(C#N)cc1 [Compound A45, 4-Cyano-N-methyl-N-[(3S,4R)-3-methyl-1-[(2R)-3,3,3-trifluoro-2-hydroxy-2-methylpropanoyl]piperidin-4-yl]benzamide]",27 µM
15,"C[C@H]1CN(C(=O)[C@@](C)(O)C(F)(F)F)CC[C@H]1N(C)C(=O)c1ccc(C(F)(F)F)cc1F [Compound A48, 2-Fluoro-N-methyl-N-[(3S,4R)-3-methyl-1-[(2R)-3,3,3-trifluoro-2-hydroxy-2-methylpropanoyl]piperidin-4-yl]-4-(trifluoromethyl)benzamide]",2.4 µM
16,"C[C@H]1CN(C(=O)[C@@](C)(O)C(F)(F)F)CC[C@H]1N(C)C(=O)c1ccc(F)cc1Cl [Compound A51, 2-Chloro-4-fluoro-N-methyl-N-[(3S,4R)-3-methyl-1-[(2R)-3,3,3-trifluoro-2-hydroxy-2-methylpropanoyl]piperidin-4-yl]benzamide]",3.6 µM
17,"C[C@H]1CN(C(=O)[C@@](C)(O)C(F)(F)F)CC[C@H]1N(C)C(=O)c1ccc(F)cn1 [Compound A54, 5-Fluoro-N-methyl-N-[(3S,4R)-3-methyl-1-[(2R)-3,3,3-trifluoro-2-hydroxy-2-methylpropanoyl]piperidin-4-yl]pyridine-2-carboxamide]",13 µM
18,"C[C@H]1CN(C(=O)[C@@](C)(O)C(F)(F)F)CC[C@H]1N(C)C(=O)c1cnn(C)c1 [Compound A57, N,1-Dimethyl-N-[(3S,4R)-3-methyl-1-[(2R)-3,3,3-trifluoro-2-hydroxy-2-methylpropanoyl]piperidin-4-yl]-1H-pyrazole-4-carboxamide]",19 µM
19,"C[C@H]1CN(C(=O)[C@@](C)(O)C(F)(F)F)CC[C@H]1N(C)C(=O)c1ccc(Cl)cc1F [Compound A60, 4-Chloro-2-fluoro-N-methyl-N-[(3S,4R)-3-methyl-1-[(2R)-3,3,3-trifluoro-2-hydroxy-2-methylpropanoyl]piperidin-4-yl]benzamide]",3.9 µM
20,"C[C@H]1CN(C(=O)[C@@](C)(O)C(F)(F)F)CC[C@H]1N(C)C(=O)c1ccc(C(F)(F)F)cc1 [Compound A63, N-Methyl-N-[(3S,4R)-3-methyl-1-[(2R)-3,3,3-trifluoro-2-hydroxy-2-methylpropanoyl]piperidin-4-yl]-4-(trifluoromethyl)benzamide]",2.9 µM

# System: PDH-E1alpha (pSer300) in HEK293T cells
# Assay: Cellular immunofluorescence assay (Anti-PDH-E1alpha (pSer300)) in HEK293T cells
# Format: cell-based
# Settings: Homo sapiens, HEK-293T, 5 hours incubation, read-out: IC50 (cell data)
# Description: Cellular Assay for Determination of Compound Activities
# Compound activities were determined in a cellular immunofluorescence assay.
# Human HEK293T cells were seeded into black 384-well plates with clear bottom and grown overnight.
# Next day, test compounds were added to the wells and the plates incubated for 5 hours. Following this, cells were fixed with formaldehyde, permeabilised and blocked. The primary antibody, Anti-PDH-E1alpha (pSer300), AP1064 (Merck Millipore) was added and incubated overnight in the plate wells. Next, cells were washed and the secondary antibody, Alexa Fluor 488, goat anti-rabbit ab (A-11008, Invitrogen) was added together with Hoechst 33258 (H3569, Invitrogen) and incubated for 1 hour in the plate wells. Finally, cells were washed and the plates were measured on the laser scanning cytometer acumen hci (TTpLabtech).
# The raw data were normalized against a pharmacological inhibitor control and dose response curves were generated by plotting the percent effect values using the software package Genedata screener (Genedata).
row,Compound,IC50
1,"Cc1ccc(N(C)C(=O)C2CCN(C(=O)[C@@](C)(O)C(F)(F)F)CC2C)cc1 (stereo partly drawn) [Compound A6, N,3-Dimethyl-N-(4-methylphenyl)-1-[(2R)-3,3,3-trifluoro-2-hydroxy-2-methylpropanoyl]piperidine-4-carboxamide]",0.2 µM

# Molecular target: human PDHK2 (12-407) (Homo sapiens (Human), UniProt Q15119)
# Assay: Isothermal titration calorimetry (ITC)
# Settings: 30° C., pH 7.5; read-out: Binding (ITC) KD
# Description: Isothermal Titration Calorimetry
# ITC measurements were performed with a VP-ITC micro calorimeter (Microcal, LLC/GE Healthcare Bio-Sciences AB, Uppsala, Sweden). In general titrations were performed by titrating the protein (50 μM) to the test compound (5 μM) in 12 μl injections. All binding experiments were carried out at 30° C. In general the test compounds were diluted form DMSO stock solutions into the measurement buffer with a maximum final concentration of 1% DMSO. The measurement buffer was 20 mM HEPES, 135 mM KCl, 1 mM TCEP, 2 mM MgCl2, 15 mM NaH2PO4, pH 7.5. The human PDHK2 (12-407) was produced in E. coli as his-tagged protein and purified by affinity chromatography. The tag was removed by side specific proteolysis. Before titration the protein buffer was changed to the measurement buffer containing the same DMSO concentration as the test compound dilution. ITC data analysis was performed using Origin 7 calorimetry software from the same supplier. For most measurements a binding model of one binding site was assumed. According to the applied mathematical model it is possible to calculate the binding constant (KA), the observed binding enthalpy (ΔH^obs) as well as the stoichiometry (N) of the formed complex. Preceding analysis the raw data was corrected for the heats of dilution by extrapolating from the saturation value from the end of titration. In order to allow for direct comparison between the respective experimental series and protein preparations the protein concentration was corrected by referencing titrations to a well behaved standard inhibitor. The apparent stoichiometry values defined the fraction of binding competent protein and compensated for relative errors in protein concentration measurements. This corrected protein concentration was used to set up ITC experiment series with test compounds. Any deviations from ideal 1:1 stoichiometry observed here were attributed to errors in compound concentration. This nominal compound concentration was corrected as well to achieve 1:1 stoichiometry in the fit.
row,Compound,Kd
1,"CN(C(=O)C1CCN(C(=O)[C@@](C)(O)C(F)(F)F)CC1)c1ccc(C#N)cc1 [Compound A4, 1-((R)-3,3,3-Trifluoro-2-hydroxy-2-methyl-propionyl)-piperidine-4-carboxylic acid (4-cyano-phenyl)-methyl-amide]",0.21 µM
2,"Cc1ccc(N(C)C(=O)[C@@H]2CCN(C(=O)[C@@](C)(O)C(F)(F)F)C[C@@H]2C)c(F)c1 [Compound A14, (3R,4R)—N-(2-fluoro-4-methylphenyl)-N,3-dimethyl-1-[(2R)-3,3,3-trifluoro-2-hydroxy-2-methylpropanoyl]piperidine-4-carboxamide]",5 µM
